This test addresses T1, Nav1.7 (or SCN9A) channel; HEK cells stably transfected with hSCN9A (Homo sapiens, UniProt Q15858).
T1 construct: expressed in transfected cells
Briefly: Nav1.7 block, PatchXpress 7000 automated whole-cell voltage clamp, estimated IC50 (EIC50). The settings on record: estimated IC50; hSCN9A HEK cells, PatchXpress platform; Examples 283-814. In kind it is cell-based.

In general, IC50 refers to the point on the concentration scale where inhibition reaches its midpoint.

T1 sequence (Q15858 whole entry): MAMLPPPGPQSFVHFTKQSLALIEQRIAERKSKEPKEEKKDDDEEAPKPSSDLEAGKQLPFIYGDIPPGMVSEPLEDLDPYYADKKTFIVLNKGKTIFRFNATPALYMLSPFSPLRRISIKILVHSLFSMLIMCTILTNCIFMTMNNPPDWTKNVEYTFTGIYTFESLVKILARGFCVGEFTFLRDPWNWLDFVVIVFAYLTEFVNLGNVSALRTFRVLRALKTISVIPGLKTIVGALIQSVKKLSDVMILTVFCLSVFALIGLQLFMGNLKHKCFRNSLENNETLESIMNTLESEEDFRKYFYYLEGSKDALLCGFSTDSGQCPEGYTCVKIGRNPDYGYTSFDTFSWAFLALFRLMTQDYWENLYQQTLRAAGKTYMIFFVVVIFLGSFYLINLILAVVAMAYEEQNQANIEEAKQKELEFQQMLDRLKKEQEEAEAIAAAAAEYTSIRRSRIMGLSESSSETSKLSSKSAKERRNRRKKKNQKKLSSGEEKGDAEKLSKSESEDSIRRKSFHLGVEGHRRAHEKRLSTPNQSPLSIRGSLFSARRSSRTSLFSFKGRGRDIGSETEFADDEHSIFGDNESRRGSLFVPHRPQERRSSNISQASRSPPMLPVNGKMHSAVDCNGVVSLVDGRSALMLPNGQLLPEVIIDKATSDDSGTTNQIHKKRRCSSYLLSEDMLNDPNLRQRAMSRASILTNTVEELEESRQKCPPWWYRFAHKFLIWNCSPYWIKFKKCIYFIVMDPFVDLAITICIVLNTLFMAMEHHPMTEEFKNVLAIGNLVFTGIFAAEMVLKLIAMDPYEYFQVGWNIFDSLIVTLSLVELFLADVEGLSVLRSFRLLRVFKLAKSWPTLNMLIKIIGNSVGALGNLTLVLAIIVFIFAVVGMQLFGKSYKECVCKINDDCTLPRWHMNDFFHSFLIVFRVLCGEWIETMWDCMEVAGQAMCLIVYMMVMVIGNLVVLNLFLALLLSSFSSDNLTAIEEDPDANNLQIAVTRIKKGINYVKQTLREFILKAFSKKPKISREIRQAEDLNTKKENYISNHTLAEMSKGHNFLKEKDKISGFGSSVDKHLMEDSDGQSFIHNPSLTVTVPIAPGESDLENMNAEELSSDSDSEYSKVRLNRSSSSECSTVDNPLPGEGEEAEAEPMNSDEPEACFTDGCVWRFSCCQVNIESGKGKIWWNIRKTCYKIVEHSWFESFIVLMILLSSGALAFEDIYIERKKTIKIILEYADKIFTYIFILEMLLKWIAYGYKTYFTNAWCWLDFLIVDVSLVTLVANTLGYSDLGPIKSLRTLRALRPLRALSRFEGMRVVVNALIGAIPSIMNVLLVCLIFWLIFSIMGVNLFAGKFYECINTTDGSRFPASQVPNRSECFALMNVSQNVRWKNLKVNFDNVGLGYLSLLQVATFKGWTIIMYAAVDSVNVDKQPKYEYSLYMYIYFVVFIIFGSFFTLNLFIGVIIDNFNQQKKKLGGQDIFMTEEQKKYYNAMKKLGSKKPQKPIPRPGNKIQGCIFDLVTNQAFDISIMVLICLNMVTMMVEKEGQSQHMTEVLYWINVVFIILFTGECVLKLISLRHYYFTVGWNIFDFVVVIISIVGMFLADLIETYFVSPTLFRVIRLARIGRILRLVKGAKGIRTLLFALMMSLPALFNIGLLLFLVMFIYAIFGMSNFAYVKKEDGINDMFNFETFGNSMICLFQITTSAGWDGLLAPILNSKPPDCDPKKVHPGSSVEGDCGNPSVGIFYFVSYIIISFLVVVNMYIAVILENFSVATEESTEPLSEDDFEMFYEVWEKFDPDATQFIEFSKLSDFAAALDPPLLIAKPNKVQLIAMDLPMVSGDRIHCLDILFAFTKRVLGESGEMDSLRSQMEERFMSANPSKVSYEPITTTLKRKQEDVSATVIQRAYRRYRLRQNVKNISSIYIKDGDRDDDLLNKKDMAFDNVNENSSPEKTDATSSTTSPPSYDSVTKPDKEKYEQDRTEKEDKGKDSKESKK

Take `N#Cc1cc(S(=O)(=O)Nc2ncns2)ccc1Oc1ccc(OC(F)(F)F)cc1-c1cn[nH]c1` [Example 502, 3-cyano-4-[2-(1H-pyrazol-4-yl)-4-(trifluoromethoxy)phenoxy]-N-1,2,4-thiadiazol-5-ylbenzenesulfonamide]: the IC50 is 22 nM. Turning to `N#Cc1cc(S(=O)(=O)Nc2ncns2)ccc1Oc1ccc(Br)cc1-c1cn[nH]c1` [Example 503, 4-[Bromo-2-(1H-pyrazol-4-yl)phenoxy]-3-cyano-N-1,2,4-thiadiazol-5-ylbenzenesulfonamide], the IC50 was 7 nM. With `CC(=O)c1cccc(-c2cc(Cl)ccc2Oc2ccc(S(=O)(=O)Nc3ncns3)cc2C#N)c1` [Example 504, 4-[(3′-acetyl-5-chlorobiphenyl-2-yl)oxy]-3-cyano-N-1,2,4-thiadiazol-5-ylbenzenesulfonamide] the figure was 4.9 nM; with `N#Cc1cc(S(=O)(=O)Nc2ncns2)ccc1Oc1ccc(Cl)cc1C1CCNCC1` [Example 505, 4-(4-chloro-2-piperidin-4-ylphenoxy)-3-cyano-N-1,2,4-thiadiazol-5-ylbenzenesulfonamide], 50 nM; with `N#Cc1cc(S(=O)(=O)Nc2ncns2)ccc1Oc1ccc(I)cc1-c1ccn[nH]1` [Example 506, 3-cyano-4-[4-iodo-2-(1H-pyrazol-5-yl)phenoxy]-N-1,2,4-thiadiazol-5-ylbenzenesulfonamide], 11 nM. With `Cn1nccc1-c1ccc(I)cc1Oc1ccc(S(=O)(=O)Nc2ncns2)cc1C#N` [Example 507, 3-cyano-4-[5-iodo-2-(1-methyl-1H-pyrazol-5-yl)phenoxy]-N-1,2,4-thiadiazol-5-ylbenzenesulfonamide] the figure was 11 nM; with `Cc1cc(-c2cc(C(F)(F)F)ccc2Oc2ccc(S(=O)(=O)Nc3ncns3)cc2C#N)ccn1` [Example 508, 3-cyano-4-[2-(2-methylpyridin-4-yl)-4-(trifluoromethyl)phenoxy]-N-1,2,4-thiadiazol-5-ylbenzenesulfonamide], 20 nM. With `N#Cc1cccc(-c2cc(C(F)(F)F)ccc2Oc2ccc(S(=O)(=O)Nc3ncns3)cc2C#N)c1` [Example 509, 3-cyano-4-{[3′-cyano-5-(trifluoromethyl)biphenyl-2-yl]oxy}-N-1,2,4-thiadiazol-5-ylbenzenesulfonamide] the figure was 31 nM. Regarding `N#Cc1cc(S(=O)(=O)Nc2ncns2)ccc1Oc1ccc(Cl)cc1-c1ccnn1C(F)F` [Example 510, 4-{4-chloro-2-[1-(difluoromethyl)-1H-pyrazol-5-yl]phenoxy}-3-cyano-N-1,2,4-thiadiazol-5-ylbenzenesulfonamide], the IC50 was 77 nM.

On to `N#Cc1cc(S(=O)(=O)Nc2ncns2)ccc1Oc1ccc(Cl)cc1-c1cccc(CN)c1` [Example 511, 4-{[3′-(aminomethyl)-5-chlorobiphenyl-2-yl]oxy}-3-cyano-N-1,2,4-thiadiazol-5-ylbenzenesulfonamide], for which the IC50 was 8.4 nM. With `N#Cc1cc(S(=O)(=O)Nc2ncc(Br)s2)ccc1Oc1c(Br)cc(Br)cc1-c1ccccc1` [Example 512, N-(5-Bromo-1,3-thiazol-2-yl)-3-cyano-4-[(3,5-dibromobiphenyl-2-yl)oxy]benzenesulfonamide] the figure was 3400 nM; with `Cn1nccc1-c1cc(Cl)ccc1Oc1ccc(S(=O)(=O)Nc2ccc(F)cn2)cc1F` [Example 514, 4-[4-chloro-2-(1-methyl-1H-pyrazol-5-yl)phenoxy]-3-fluoro-N-(5-fluoropyridin-2-yl)benzenesulfonamide], 1100 nM; with `Cc1nsc(NS(=O)(=O)c2ccc(Oc3ccc(Cl)cc3-c3ccnn3C)c(F)c2)n1` [Example 515, 4-[4-chloro-2-(1-methyl-1H-pyrazol-5-yl)phenoxy]-3-fluoro-N-(3-methyl-1,2,4-thiadiazol-5-yl)benzenesulfonamide], 1900 nM. With `O=S(=O)(Nc1cscn1)c1cc(Cl)c(Oc2ccc(F)cc2-c2ccnn2CCO)cc1F` [Example 517, 5-chloro-2-fluoro-4-{4-fluoro-2-[1-(2-hydroxyethyl)-1H-pyrazol-5-yl]phenoxy}-N-1,3-thiazol-4-ylbenzenesulfonamide] the figure was 2200 nM; with `O=S(=O)(Nc1cscn1)c1cc(Cl)c(Oc2cc(C(F)(F)F)ccc2-c2cncnc2)cc1F` [Example 518, 5-chloro-2-fluoro-4-[2-pyrimidin-5-yl-5-(trifluoromethyl)phenoxy]-N-1,3-thiazol-4-ylbenzenesulfonamide], more than 1000 nM; with `CC(C)(C)n1nccc1-c1cc(F)ccc1Oc1cc(F)c(S(=O)(=O)Nc2cscn2)cc1Cl` [Example 519, 4-[2-(1-tert-butyl-1H-pyrazol-5-yl)-4-fluorophenoxy]-5-chloro-2-fluoro-N-1,3-thiazol-4-ylbenzenesulfonamide], 1200 nM. `CC(C)(C)n1ccc(-c2cc(F)ccc2Oc2cc(F)c(S(=O)(=O)Nc3cscn3)cc2Cl)n1` [Example 520, 4-[2-(1-tert-butyl-1H-pyrazol-3-yl)-4-fluorophenoxy]-5-chloro-2-fluoro-N-1,3-thiazol-4-ylbenzenesulfonamide]: the IC50 was more than 1000 nM. With `O=S(=O)(Nc1cscn1)c1cc(Cl)c(Oc2ccc(F)cc2-c2c[nH]nn2)cc1F` [Example 521, 5-chloro-2-fluoro-4-[4-fluoro-2-(1H-1,2,3-triazol-4-yl)phenoxy]-N-1,3-thiazol-4-ylbenzenesulfonamide] the figure was 2900 nM. With `Cn1ccc(-c2cc(F)ccc2Oc2cc(F)c(S(=O)(=O)Nc3cscn3)cc2Cl)n1` [Example 522, 5-chloro-2-fluoro-4-[4-fluoro-2-(1-methyl-1H-pyrazol-3-yl)phenoxy]-N-1,3-thiazol-4-ylbenzenesulfonamide] the figure was 7300 nM; with `Cn1nncc1-c1cc(F)ccc1Oc1cc(F)c(S(=O)(=O)Nc2cscn2)cc1Cl` [Example 523, 5-chloro-2-fluoro-4-[4-fluoro-2-(1-methyl-1H-1,2,3-triazol-5-yl)phenoxy]-N-1,3-thiazol-4-ylbenzenesulfonamide], 2600 nM. Consider `Cn1nc(C(F)(F)F)cc1-c1ccc(Oc2cc(F)c(S(=O)(=O)Nc3cscn3)cc2Cl)c(C#N)c1` [Example 524, 5-chloro-4-{2-cyano-4-[1-methyl-3-(trifluoromethyl)-1H-pyrazol-5-yl]phenoxy}-2-fluoro-N-1,3-thiazol-4-ylbenzenesulfonamide], for which the IC50 was 580 nM. With `Cn1nccc1-c1cc(F)c(F)cc1Oc1ccc(S(=O)(=O)Nc2nccs2)cc1C#N` [Example 526, 3-cyano-4-[4,5-difluoro-2-(1-methyl-1H-pyrazol-5-yl)phenoxy]-N-1,3-thiazol-2-ylbenzenesulfonamide] the figure was 160 nM; with `Cn1nc(C(F)(F)F)cc1-c1cccc(Oc2ccc(S(=O)(=O)Nc3nccs3)cc2C#N)c1F` [Example 527, 3-cyano-4-{2-fluoro-3-[1-methyl-3-(trifluoromethyl)-1H-pyrazol-5-yl]phenoxy}-N-1,3-thiazol-2-ylbenzenesulfonamide], 140 nM. With `Cn1nccc1-c1cc(F)ccc1Oc1ccc(S(=O)(=O)Nc2ccncn2)cc1F` [Example 528, 3-fluoro-4-[4-fluoro-2-(1-methyl-1H-pyrazol-5-yl)phenoxy]-N-pyrimidin-4-ylbenzenesulfonamide] the figure was 740 nM.

The values are drawn from US8541588B2, “Sulfonamide derivatives” (Pfizer Limited, priority 2009, dated 2013).
